Tests used:
Alveolar rat macrophages = assay: macrophage activation: cytotoxicity of alveolar rat macrophages against 125I-marked tumour cells; assay type: cell-based
Experimental: Alveolar rat macrophages are obtained by lung washing, plated out and incubated in vitro for 24 hours either with liposomes that are charged with the active ingredient, or with the active ingredient in physiological salt solution (phosphate buffered saline, PBS), ^125 I-marked tumour cells are added and incubation is continued for a further 72 hours. Subsequently the dead tumour cells are washed away and the number of tumour cells still living is determined on the basis of their radioactivity. […] The specific cytotoxicity [%] is calculated as follows: [formula]
Further details of the above-mentioned test method are described in I. J. Fidler et. al., J. Biol. Response Modifiers 1, 43-55 (1982).

[1] = test for pyrogenity in rabbits (European Pharmacopoeia); assay type: in vivo; details: subcutaneous administration, 30 mg/kg
Text: The test for pyrogenity can be carried out in rabbits in accordance with the instructions given in European Pharmacopoeia, Vol. 2, pages 56-59 (1971).

[2] = Active ingredient in 100 μg of lipsomes per 0.2 ml, 0.2 μg/culture
[3] = Active ingredient in 100 μg of lipsomes per 0.2 ml, 2 μg/culture
[4] = Active ingredient in 100 μg of lipsomes per 0.2 ml, 20 μg/culture
[5] = Active ingredient in 0.2 ml of PBS, 0.2 μg/culture
[6] = Active ingredient in 0.2 ml of PBS, 2 μg/culture
[7] = Active ingredient in 100 μg of lipsomes per 0.2 ml, 0.02 μg/culture
[8] = Active ingredient in 0.2 ml of PBS, 0.02 μg/culture

Row | Molecule | Specific cytotoxity [%] (Alveolar rat macrophages; [2]) | Specific cytotoxity [%] (Alveolar rat macrophages; [3]) | Specific cytotoxity [%] (Alveolar rat macrophages; [4]) | Specific cytotoxity [%] (Alveolar rat macrophages; [5]) | Specific cytotoxity [%] (Alveolar rat macrophages; [6]) | pyrogenic effect [1] | Specific cytotoxity [%] (Alveolar rat macrophages; [7]) | Specific cytotoxity [%] (Alveolar rat macrophages; [8]) | Specific cytotoxity [%] (Alveolar rat macrophages; Active ingredient in 0.2 ml of PBS, 20 μg/culture)
1 | CCCCCCCCCCCCCCCC(=O)OC[C@H](COP(=O)([O-])OCCNC(=O)[C@H](C)NC(=O)CC[C@@H](NC(=O)[C@H](C)NC(=O)[C@@H](C)O[C@H]1[C@H](O)[C@@H](CO)OC(O)[C@@H]1NC(C)=O)C(=O)OCCCC)OC(=O)CCCCCCCCCCCCCCC.[Na+] (stereo partly drawn) [Active ingredient I, the sodium salt of N-acetylmuramyl-L-alanyl-D-glutamyl-(Cα)-n-butyl ester-(Cγ)-L-alanine-2-(1,2-dipalmitoyl-sn-glycero-3-hydroxyphosphoryloxy)-ethylamide] | 56% | 51% | 44% | 39% | 59% | no pyrogenic effect | – | – | –
2 | CCCCCCCCCCCCCCCC(=O)OCC(COP(=O)([O-])OCCNC(=O)C(C)NC(=O)CCC(NC(=O)C(C)NC(=O)C(C)OC1C(O)C(CO)OC(O)C1NC(C)=O)C(N)=O)OC(=O)CCCCCCCCCCCCCCC.[Na+] [sodium salt of N-acetylmuramyl-L-alanyl-D-isoglutaminyl-L-alanine-2-(1,2-dipalmitoyl-sn-glycero-3-hydroxyphosphoryloxy)-ethylamide, reference compound] | – | – | – | – | – | highly pyrogenic | – | – | –
3 | the sodium salt of N--acetylmuramyl-L-valyl-D-glutamyl-(C α)-n-butyl ester-(Cγ)-L-alanine-2-(1,2-dipalmitoyl-sn-glycero-3-hydroxyphosphoryloxy)-ethylamide [compound IV] | 68% | 52% | – | 18% | 20% | – | 64% | 23% | –
4 | the sodium salt of N--acetylmuramyl-L-α-aminobutyryl-D-glutamyl-(Cα)-n-butyl ester-(Cγ)-L-alanine-2-(1,2-dipalmitoyl-sn-glycero-3-hydroxyphosphoryloxy)-ethyl-amide [compound II] | 10% | 23% | 11% | 21% | 48% | – | – | – | 74%
5 | the sodium salt of N-propionylnormuramyl-L-alanyl-D-glutamyl-(Cα)-n-butyl ester-(Cγ)-L-alanine-2-(1,2-dipalmitoyl-sn-glycero-3-hydroxyphosphoryloxy)-ethylamide [Active ingredient II] | 76% | 79% | – | 81% | 47% | – | 64% | 3% | –
